# Data as given in patent US20080286337A1, “Method of treating a disease in an eye using a scleral lens” (Boston Foundation for Sight, priority 2007, published 2008).
# Read-outs that look alike come from different tables or passages of the source.
# Legend:
# [1] = test system: corneal neovascularization; test: Topical AVASTIN in the scleral lens drug delivery system to treat corneal neovascularization; type: in vivo
# From the text: This study using AVASTIN® off-label, topically, to treat corneal neovascularization was repeated using the scleral lens drug delivery system. […] This therapeutic effect was achieved without BAK. Instead, the expanded pre-corneal tear film of the scleral lens drug delivery system provided adequate bioavailability of the drug without exposing the cornea to BAK.
# [2] = test system: corneal neovascularization; conditions: solution of 1% AVASTIN and 0.01% BAK, one drop, four times per day for at least thirty days; no scleral lens; cited from earlier work
substance,measurement,setting,value
bevacizumab [AVASTIN®],therapeutic effect on corneal neovascularization,"[1]; one drop of 1% AVASTIN added to expanded pre-corneal tear film of artificial tears in a scleral lens twice per day, without BAK",achieved a therapeutic effect by thirty days
same,continued benefit after initial therapeutic effect,"[1]; same regimen, the sixty days following the first thirty days",continued benefit over the subsequent sixty days
same,"regression of corneal neovascularization (clinical photos, FIG. 5)",[1]; scleral lens drug delivery system,regression of corneal neovascularization
same,therapeutic effect on corneal neovascularization,[2],Therapeutic effect was reported
